According to a melting point compilation (Tetko et al.; mined from patent text by program, amines drawn as free bases though some values may be those of a salt):

Structure (SMILES) | melting point [°C]
CCOC(=O)c1oc2cccc(OC)c2c1C | 67 to 69
Cc1ccc2c(c1)N(CC(=O)c1ccccc1C)C(=O)C(NC(=O)Nc1cccc(C(=O)O)c1)CN2C(=O)c1ccco1 (stereo unspecified) | 219 to 221
CC(C)(C)OC(=O)N1CC(CCl)c2ccc([N+](=O)[O-])cc21 (stereo unspecified) | 111 to 112
Cc1cc(-c2nc3cccnn3c2-c2ccnc(NC(=O)c3ccc4ncccc4c3)c2)ccc1F | 210 to 211
COc1cc(C=C(Br)Br)cc(OC)c1OCc1ccccc1 | 76 to 77
CCNC(=O)C(C)NS(=O)(=O)c1ccc(C)cc1 (racemic) | 106 to 107
CCOc1ccccc1-c1nc2c(OC)cccc2c(=O)[nH]1 | 198 to 199
O=C(C=Cc1cccc(S(=O)(=O)Nc2cccc3ccccc23)c1)NO | 180
COc1cc2c(cc1OC)CC(=O)N(CC1CCCNC1)CC2 (stereo unspecified) | 152 to 156
Cc1c(C)c2c(c(C)c1NC(=O)CCC(F)(F)F)C(c1ccc(C(C)C)cc1)CO2 (stereo unspecified) | 206 to 207
CNc1nc(NC(=O)NS(=O)(=O)c2ccccc2Cl)nc(OC)n1 | 224 to 228
C1=C(c2c[nH]c3ccccc23)CN(Cc2ccccc2)CC1 | 105 to 107
Cc1ccc(S(=O)(=O)C#CBr)cc1 | 99 to 101
CC(=O)OC1CSC(Oc2cncc(-c3ccc(F)c(C)c3)c2)C(OC(C)=O)C1OC(C)=O (stereo unspecified) | 161
C#CC(Oc1cc(C(=O)OC)cc(OC)c1OC)C1CC1 (stereo unspecified) | 93 to 94
O=Cc1c2ccccc2c(Cl)c2cc3ccccc3cc12 | 212 to 214
CCCOc1ccccc1-c1nc2nc(N(CC)CC)ncc2c(=O)[nH]1 | 116 to 117
CC(Cc1ccc(OCC(N)=O)cc1)NCC(O)c1ccccc1 (stereo unspecified) | 158 to 162
C#CCn1cc(C(=O)OCC)sc1=O | 70 to 71
CC(=O)OC(Cn1cncn1)(c1ccc(F)cc1F)C1(S(=O)(=O)Cl)CC1 (racemic) | 163 to 165
Cc1c(C)c2ccc(OCC(O)CN3CCC(NC(=O)c4ccccc4)CC3)cc2oc1=O (stereo unspecified) | 178 to 180
O=C1CCCCCCCCCCCCCCCCCCCCCC(O)C(=O)OCCCC1 (stereo unspecified) | 67 to 68
CC1(C)CC(=O)CC(=O)C1c1ccccc1 (stereo unspecified) | 133 to 135
CCn1c2cc(Cl)ccc2c2oc(C(=O)Cl)cc21 | 137 to 138

Structure (SMILES) | melting point [°C]
CN(C)Cc1ccc(CSCCNc2ncc(Cc3ccn(Cc4ccccc4)c(=O)c3)c(=O)[nH]2)o1 | 95.5 to 98
COc1ncnc2nc(-c3ccccc3)cnc12 | 205 to 207
c1cc(CN2CCCC2)cc(OCCCNc2nc3ccccc3s2)c1 | 91 to 92
COc1ccc(N(c2nc(N)nc(NC3CC3)n2)C2CC2)cc1F | 91 to 92
CCCCCCCCCCS(=O)(=O)Oc1c(I)cc(I)cc1I | 71 to 72
CC(Cc1ccccc1)C1CC=C2C3=C(CCC21C)C1(C)CCC(O)CC1CC3 (stereo unspecified) | 156 to 157
CCOc1nc(C(=O)O)c2c(n1)nc(OCC)n2Cc1ccc(-c2ccccc2-c2nnn[nH]2)cc1 | 140 to 141
CS(=O)(=O)c1ccc(-c2cc3c(cc2C(=O)c2cc(F)cc(F)c2)OCCO3)cc1 | 191 to 193
CCOc1nc(N)n2nc(-c3ccco3)nc2n1 | 211 to 213
CC(C)(C)c1cc(C(O)COc2ccc(C(=O)O)c(O)c2)cc(C(C)(C)C)c1O (stereo unspecified) | 132 to 133
CCOCc1cc(COc2cc(C)nc(C)c2OC)ccc1-c1ccccc1S(=O)(=O)Nc1noc(C)c1C | 78 to 82
Nc1cc(-c2ccc([N+](=O)[O-])c(N)c2)ccc1[N+](=O)[O-] | 226
O=C(O)c1cn(CCF)c2nc(N3CCNCC3)c(F)cc2c1=O | 223 to 225
CCc1nsc(C(=O)NC(C)C)c1C(=O)O | 138 to 140
CN(Cc1ccccc1)c1ccc(C(=O)c2ccccc2)cc1[N+](=O)[O-] | 99.5
CCC1(C)CC(O)CC(C)(C)N1OC(C)(C)C#N (stereo unspecified) | 48 to 60
O=C(NC/C=C\COc1cc(CN2CCCC2)ccn1)c1cn[nH]c1 | 57 to 61
CCCc1cn(Cc2ccc(C(=O)NS(=O)(=O)c3ccccc3Cl)cc2OC)c2cc(CCCC(=O)N(C)C)ccc12 | 137 to 138
FC(F)(F)COc1ccc(-c2nc3n(c2-c2ccc(OCC(F)(F)F)cc2)CCS3)cc1 | 163 to 164
CCc1cc(Oc2ncc(C(F)(F)F)cc2Cl)nn1C(=O)NC | 85 to 87
CCCC1CC(=O)Nc2c1cnn2CC (stereo unspecified) | 108 to 110
CC(C)c1csc2[nH]c(=O)c(=O)[nH]c12 | > 250
c1csc(-c2nc(COc3ccc(CCCn4ccnc4)cn3)co2)c1 | 86 to 87
CCOC(=O)C(=CNc1cccc(C#N)c1)C(=O)OCC | 109 to 111

Structure (SMILES) | melting point [°C]
C[C@H](c1ccccc1)N1C(=O)c2cccc([N+](=O)[O-])c2C1=O | 115 to 117
O=c1nc(-c2ccncc2O)nc2n(C3CCCC3)[nH]c(C(F)(F)F)c1-2 | 205 to 206
COCCCc1ccc(C#CC2(O)CN3CCC2CC3)cc1 (stereo unspecified) | 145
CNC(=S)n1nc(N)nc1N | 176 to 178
COc1ccc2c(c1O)C13CCNC(C2)C1CC(C)C(=O)C3 (stereo unspecified) | 163 to 165
COc1ccc(NC(=O)c2ccccc2)cc1NC(=S)Nc1cc(Cl)cc(Cl)c1 | 194 to 195
CCC(=CC(CNC(=O)c1cccnc1SC)=NO)C(C)[N+](=O)[O-] (stereo unspecified) | 161 to 163
N[C@@H](Cc1cccc(C(F)(F)F)c1)[C@H](O)c1ccc(F)cc1 (racemic) | 76 to 77
CC(=O)Nc1ccc(F)cc1OCc1ccccc1 | 136 to 138
O=C(O)CCCOc1cccc(CCNC(=O)C2Cc3ccccc3N2S(=O)(=O)c2ccc(-c3cccc(C(F)(F)F)c3)cc2)c1 (stereo unspecified) | 70
CCCCCCCCCCCC(=O)c1cn(CCCC(=O)O)c2ccccc12 | 88 to 90
Cc1c(C)c2c(c(C)c1NC(=O)CC(C)(C)C)OC(C)(C)C2c1ccc(C(C)C)cc1 (stereo unspecified) | 128 to 129
COC(=O)CCC(=O)c1ccc(SC(=O)N(C)C)cc1 | 98 to 100
Nc1ccc(-n2ncnc2-c2ccc(F)cc2)cc1 | 147 to 150
CCC1(CC)CN(C(C)(C)C)C(=O)C(CC)(CC)N1OCc1ccccc1 | 83 to 85
COc1ccc(-c2c(C(=O)O)n(Cc3ccc4c(c3)OCO4)c3ccccc23)cc1 | 109 to 111
CC(C)CCOCc1cc(N2N=C(C(N)=O)NC2c2ccccc2)ccc1Cl (stereo unspecified) | 174 to 176
CC(=O)N1c2ccc(-c3ccc(CN4CCCCC4)cc3)cc2C(Nc2ccc(F)cc2)CC1C (stereo unspecified) | 106
CSc1nc(N)nc2c1ncn2C1C=CC(CO)C1 (stereo unspecified) | 152 to 154
COC(OCCc1nc(C(C)C)c(Sc2cc(Cl)cc(Cl)c2)n1C)(c1ccccc1)c1ccccc1 | 107 to 108
CCCCCCCCCCCCCCOc1ccc(CC(=O)Nc2cccc(-c3nccs3)c2)cc1 | 128 to 131
CCOC(=O)[C@](CC(=O)OC1CC(C)CCC1C(C)C)(NC(=O)OC(C)(C)C)C(N)=O (stereo partly specified) | 176
O=C(NCCN1CCOCC1)Nc1nc2ccc(OCc3c(F)cccc3Cl)cc2s1 | 210
